Experimental data published in patent publication US8822449B2, “Substituted aminoindanes and analogs thereof, and the pharmaceutical use thereof” (Sanofi, priority 2008, dated 2014).

Target: T1, sodium-proton exchanger of subtype 3 (NHE3) (Homo sapiens, UniProt P48764)
T1 construct: expressed in transfected cells
T1 sequence (P48764 26-834): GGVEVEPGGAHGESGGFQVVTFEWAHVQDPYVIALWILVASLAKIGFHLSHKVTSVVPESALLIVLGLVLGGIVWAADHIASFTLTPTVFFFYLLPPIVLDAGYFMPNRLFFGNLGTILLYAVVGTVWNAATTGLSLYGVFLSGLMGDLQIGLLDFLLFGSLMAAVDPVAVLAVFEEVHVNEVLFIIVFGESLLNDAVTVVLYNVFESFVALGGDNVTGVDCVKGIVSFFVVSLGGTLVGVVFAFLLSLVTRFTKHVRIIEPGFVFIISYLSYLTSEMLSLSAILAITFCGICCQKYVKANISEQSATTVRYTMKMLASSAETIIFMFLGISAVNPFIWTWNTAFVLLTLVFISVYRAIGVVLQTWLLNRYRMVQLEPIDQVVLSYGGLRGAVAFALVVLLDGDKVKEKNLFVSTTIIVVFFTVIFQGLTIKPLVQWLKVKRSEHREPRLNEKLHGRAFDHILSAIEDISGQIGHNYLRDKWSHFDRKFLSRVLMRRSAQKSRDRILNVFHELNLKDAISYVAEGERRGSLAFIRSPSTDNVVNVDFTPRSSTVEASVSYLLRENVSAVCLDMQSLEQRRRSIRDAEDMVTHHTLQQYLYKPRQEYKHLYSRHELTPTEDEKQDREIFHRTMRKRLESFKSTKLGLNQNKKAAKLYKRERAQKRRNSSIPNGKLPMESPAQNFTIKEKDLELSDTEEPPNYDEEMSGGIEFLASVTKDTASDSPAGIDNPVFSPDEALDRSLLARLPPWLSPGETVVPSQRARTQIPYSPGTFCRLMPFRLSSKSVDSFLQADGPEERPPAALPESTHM
Experiment: Recovery of intracellular pH (pHi) after acidification in LAP1 cells stably expressing NHE3 (BCECF fluorescence, FLIPR)
Type: cell-based
Conditions: LAP1 cells stably expressing NHE3; pH recovery after acidification; range 1 is % inhibition at 10 μM; read-out: Activity range (inhibitory effect on NHE3)

| Compound | IC50 [nM] | inhibition at 10 µM [%] |
| --- | --- | --- |
| Cc1nnc(C)n1-c1ccc(F)c(O[C@H]2c3cc(Cl)cc(Cl)c3C[C@@H]2N2CC[C@@H](O)C2)c1 [Example 114, (R)-1-{(1S,2S)-4,6-dichloro-1-[5-(3,5-dimethyl-[1,2,4]triazol-4-yl)-2-fluorophenoxy]indan-2-yl}pyrrolidin-3-ol] | 1000 to 10000 |  |
| CC(=O)Nc1cccc(O[C@@H]2c3ccccc3C[C@H]2N2C[C@H]3CNC[C@H]3C2)c1 (racemic) [Example 674, N-{3-[rac-trans-(1,2)-2-(hexahydropyrrolo[3,4-c]pyrrol-2-yl)indan-1-yloxy]phenyl}acetamide] | 1000 to 10000 |  |
| N[C@@H]1CCCN([C@H]2CCc3ccccc3[C@@H]2Oc2ccc(-n3ccnc3)cc2)C1 (racemic) [Example 71, (R)-1-[rac-trans-(1,2)-1-(4-imidazol-1-ylphenoxy)-1,2,3,4-tetrahydronaphthalen-2-yl]piperidin-3-ylamine] | 1000 to 10000 |  |
| CSc1ccc(O[C@H]2c3ccccc3CC[C@@H]2N2CCC[C@@H](N)C2)cc1 (racemic) [Example 74, (R)-1-[rac-trans-(1,2)-1-(4-methylsulfanylphenoxy)-1,2,3,4-tetrahydronaphthalen-2-yl]piperidin-3-ylamine] |  | 20 to 50 |
| Cc1cc(C)n(-c2ccc(O[C@H]3c4cc(Cl)cc(Cl)c4C[C@@H]3N3CC[C@@H](O)C3)c(F)c2)n1 [Example 136, (R)-1-{trans-(1S,2S)-4,6-dichloro-1-[4-(3,5-dimethylpyrazol-1-yl)-2-fluorophenoxy]indan-2-yl}pyrrolidin-3-ol] |  | 20 to 50 |
| N[C@@H]1CCCN([C@H]2CCc3ccccc3[C@@H]2Oc2ccc(F)c(F)c2)C1 (racemic) [Example 51, (R)-1-[rac-trans-(1,2)-1-(3,4-difluorophenoxy)-1,2,3,4-tetrahydronaphthalen-2-yl]piperidin-3-ylamine] |  | 20 to 50 |
| CCN(CC)[C@@H]1Cc2ccccc2[C@H]1Oc1ccc(CCOC)cc1 (racemic) [Example 628, Diethyl-{rac-trans-(1,2)-1-[4-(2-methoxyethyl)phenoxy]indan-2-yl}amine] | 1000 to 10000 |  |
| NCC1CCN([C@@H]2Cc3ccccc3[C@H]2Oc2ccc(-n3cncn3)cc2)C1 (mixture of isomers) [Example 618, C-{1-[rac-trans-(1,2)-1-(4-[1,2,4]triazol-1-ylphenoxy)indan-2-yl]pyrrolidin-3-yl}methylamine] | 1000 to 10000 |  |
| NS(=O)(=O)c1ccc(O[C@H]2c3ccccc3C[C@@H]2CN2CCCCC2)c(Cl)c1 (racemic) [Example 440, 3-chloro-4-(2-piperidin-1-ylmethylindan-1-yloxy)benzenesulfonamide] |  | 20 to 50 |
| N#Cc1cc(Cl)ccc1O[C@@H]1c2ccccc2C[C@H]1N1CCC(CN)CC1 (racemic) [Example 376, 2-[rac-trans-(1,2)-2-(4-aminomethylpiperidin-1-yl)indan-1-yloxy]-5-chlorobenzonitrile] | 1000 to 10000 |  |
| N#Cc1ccc2cccc(O[C@H]3c4ccccc4CC[C@@H]3N3CCOCC3)c2n1 (racemic) [Example 594, 8-(rac-trans-(1,2)-2-morpholin-4-yl-1,2,3,4-tetrahydronaphthalen-1-yloxy)quinoline-2-carbonitrile] |  | 20 to 50 |
| Cc1cc(C#N)cc(C)c1O[C@H]1c2ccccc2CC[C@@H]1N1CCC[C@@H](N)C1 (racemic) [Example 511, 4-[rac-trans-(1,2)-2-((R)-3-aminopiperidin-1-yl)-1,2,3,4-tetrahydronaphthalen-1-yloxy]-3,5-dimethylbenzonitrile] |  | 20 to 50 |
| NCC1CCN([C@@H]2Cc3ccccc3[C@H]2Oc2cccc3[nH]ccc23)C1 (mixture of isomers) [Example 601, C-{1-[rac-trans-(1,2)-1-(1H-indol-4-yloxy)indan-2-yl]pyrrolidin-3-yl}methylamine] | 1000 to 10000 |  |
| NCC1CCN([C@@H]2Cc3ccccc3[C@H]2Oc2cccc(NC(N)=O)c2)CC1 (racemic) [Example 235, {3-[rac-trans-(1,2)-2-(4-aminomethylpiperidin-1-yl)indan-1-yloxy]phenyl}urea] | 1000 to 10000 |  |
| CS(=O)(=O)c1ccccc1O[C@H]1c2ccccc2CC[C@@H]1N1CCC[C@H](N)C1 (racemic) [Example 156, (S)-1-[rac-trans-(1,2)-1-(2-methanesulfonylphenoxy)-1,2,3,4-tetrahydronaphthalen-2-yl]piperidin-3-ylamine] |  | 20 to 50 |
| CC(=O)Nc1cccc(O[C@H]2c3cc(Cl)cc(Cl)c3C[C@@H]2N(C)C)c1 (racemic) [Example 645, N-[3-(rac-trans-(1,2)-4,6-dichloro-2-dimethylaminoindan-1-yloxy)phenyl]acetamide] | 1000 to 10000 |  |
| NS(=O)(=O)c1ccc(OC2c3ccccc3CC2N2CCCC2)cc1 (racemic) [Example 466, 4-(rac-trans-(1,2)-2-pyrrolidin-1-ylindan-1-yloxy)benzenesulfonamide] | < 1000 |  |
| CS(=O)(=O)c1ccc(O[C@H]2c3cc(Cl)cc(Cl)c3C[C@@H]2N2CCCN(CCO)CC2)cc1 (racemic) [Example 383, 2-{4-[rac-trans-(1,2)-4,6-dichloro-1-(4-methanesulfonylphenoxy)indan-2-yl]-[1,4]diazepan-1-yl}-ethanol] | < 1000 |  |

Next, values leading:

| IC50 [nM] | inhibition at 10 µM [%] | Compound |
| --- | --- | --- |
| < 1000 |  | CS(=O)(=O)c1ccc(O[C@H]2c3cc(Cl)cc(Cl)c3C[C@@H]2N2CCC[C@@H](NCCF)C2)cc1 [Example 222, {(R)-1-[trans-(1S,2S)-4,6-dichloro-1-(4-methanesulfonylphenoxy)indan-2-yl]piperidin-3-yl}-(2-fluoroethyl)amine] |
| < 1000 |  | Cc1nnc(C)n1-c1ccc(O[C@H]2c3cc(Cl)cc(Cl)c3C[C@@H]2N2CCS(=O)(=O)CC2)c(F)c1 [Example 565, 4-{trans-(1S,2S)-4,6-dichloro-1-[4-(3,5-dimethyl-[1,2,4]triazol-4-yl)-2-fluorophenoxy]indan-2-yl}thiomorpholine 1,1-dioxide] |
| < 1000 |  | Cc1nnc(C)n1-c1ccc(O[C@H]2c3cc(Cl)cc(F)c3C[C@@H]2N2CC[C@@H](O)C2)c(F)c1 [Example 142, (R)-1-{trans-(1S,2S)-6-chloro-1-[4-(3,5-dimethyl-[1,2,4]triazol-4-yl)-2-fluorophenoxy]-4-fluoroindan-2-yl}pyrrolidin-3-ol] |
| < 1000 |  | Cc1nnc(C)n1-c1ccc(O[C@H]2c3cc(Cl)cc(Cl)c3C[C@@H]2N2CC[C@@H](F)C2)cc1 [Example 561, 4-{4-[trans-(1S,2S)-4,6-dichloro-2-((R)-3-fluoropyrrolidin-1-yl)indan-1-yloxy]phenyl}-3,5-dimethyl-4H-[1,2,4]triazole] |
| < 1000 |  | CS(=O)(=O)c1ccc(O[C@H]2c3cc(Cl)cc(Cl)c3C[C@@H]2N2CCC[C@@H](NCCC(F)(F)F)C2)cc1 [Example 223, {(R)-1-[trans-(1S,2S)-4,6-dichloro-1-(4-methanesulfonylphenoxy)indan-2-yl]piperidin-3-yl}-(3,3,3-trifluoropropyl)amine] |
| < 1000 |  | CS(=O)(=O)c1ccc(O[C@H]2c3cc(Cl)cc(Cl)c3C[C@@H]2N2CC[C@H](F)C2)cc1 [Example 196, (S)-1-[trans-(1S,2S)-4,6-dichloro-1-(4-methanesulfonylphenoxy)indan-2-yl]-3-fluoropyrrolidine] |
| < 1000 |  | NS(=O)(=O)c1ccc(O[C@H]2c3cc(Cl)cc(Cl)c3C[C@@H]2N2CC[C@@H](O)C2)cc1 [Example 743, 4-[trans-(1S,2S)-4,6-Dichloro-2-((R)-3-hydroxy-pyrrolidin-1-yl)-indan-1-yloxy]-benzenesulfonamide] |
| < 1000 |  | Cn1ccn(-c2cccc(O[C@H]3c4ccccc4C[C@@H]3N3CCCC3)c2)c1=O (racemic) [Example 352, 1-methyl-3-[3-(rac-trans-(1,2)-2-pyrrolidin-1-ylindan-1-yloxy)phenyl]-1,3-dihydroimidazol-2-one] |
| < 1000 |  | NC(=O)c1ccccc1O[C@H]1c2ccccc2CC[C@@H]1N1CCC[C@H](N)C1 (racemic) [Example 373, 2-[rac-trans-(1,2)-2-((S)-3-aminopiperidin-1-yl)-1,2,3,4-tetrahydronaphthalen-1-yloxy]benzamide] |
| < 1000 |  | Cc1nnc(C(C)C)n1-c1ccc(O[C@H]2c3cc(Cl)cc(Cl)c3C[C@@H]2N2CC[C@@H](O)C2)cc1 [Example 715, (R)-1-{trans-(1S,2S)-4,6-Dichloro-1-[4-(3-isopropyl-5-methyl-[1,2,4]triazol-4-yl)-phenoxy]-indan-2-yl}-pyrrolidin-3-ol] |
| < 1000 |  | CS(=O)(=O)c1nccn1-c1ccc(O[C@H]2c3cc(Cl)cc(Cl)c3C[C@@H]2N2CC[C@@H](O)C2)c(F)c1 [Example 739, (R)-1-{trans-(1S,2S)-4,6-Dichloro-1-[2-fluoro-4-(2-methanesulfonyl-imidazol-1-yl)-phenoxy]-indan-2-yl}-pyrrolidin-3-ol] |
| < 1000 |  | CS(=O)(=O)c1nccn1-c1ccc(O[C@H]2c3cc(Cl)cc(Cl)c3C[C@@H]2N2CC[C@@H](O)C2)cc1 [Example 731, (R)-1-{trans-(1S,2S)-4,6-Dichloro-1-[4-(2-methanesulfonyl-imidazol-1-yl)-phenoxy]-indan-2-yl}-pyrrolidin-3-ol] |
